The species entered for test [1] is Mus musculus. Kind of test: Compound was tested against weight change in mice with L1210 leukemia cells on 10 th Day at Dose 40 mg / kg. Conditions: at 40 mg/kg.
The species named for test [2] is Mus musculus. The test is described as follows: Compound was tested against weight change in mice with L1210 leukemia cells on 10 th Day at Dose 20 mg / kg. The conditions noted are these: at 20 mg/kg.
Test [3] relates to Mus musculus. Kind of test: Median Survival days of mice infected with L1210 leukemia cells at dose 20 mg/kg relative to that of 9 days for control. In kind it is functional.
Test [4] deals with L1210. The test is described as follows: Compound was tested for its inhibitory concentration to inhibit the growth of wild type L1210 cells and a subline ( L1210 / R81 ). In kind it is functional, cell-based. Conditions: Mus musculus.
The species named for test [5] is Homo sapiens. The test is described as follows: Compound was tested for its inhibitory concentration against human leukemic lymphoblasts (CEM Cells) and a resistant subline (CEM / MTX). In kind it is functional. The conditions noted are these: CCRF-CEM.
Test [6] is filed under the species Homo sapiens. Kind of test: Compound was tested for its inhibitory concentration against human leukemic lymphoblasts ( CEM Cells ). In kind it is functional. Conditions: CCRF-CEM.
The subject of test [7] is Mus musculus. The test is described as follows: Median Survival days of mice infected with L1210 leukemia cells at dose 80 mg/kg relative to that of 9 days for control; Toxic. In kind it is functional, organism-based. More on the design: dose 80 mg/kg.
For another test, the target named is T1, Dihydrofolate reductase (Mus musculus, UniProt P00375).
T1 sequence (P00375 whole entry): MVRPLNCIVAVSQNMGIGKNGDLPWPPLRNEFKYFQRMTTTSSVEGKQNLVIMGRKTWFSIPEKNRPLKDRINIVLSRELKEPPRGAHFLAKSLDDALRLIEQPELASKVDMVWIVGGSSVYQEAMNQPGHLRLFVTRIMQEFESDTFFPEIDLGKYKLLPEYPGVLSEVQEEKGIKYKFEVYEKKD
Kind of test: biochemical.

For test [8], the system named is Mus musculus. The test is described as follows: Increase in life span of mice with L1210 leukemia cells at a dose of 20 mg/kg. The class given is functional.
The subject of test [9] is Mus musculus. The test is described as follows: Increase in life span of mice with L1210 leukemia cells at a dose of 80 mg/kg; Toxic. More on the design: dose 80 mg/kg. The class given is functional, organism-based.
The test system of test [10] is Mus musculus. The test is described as follows: Increase in life span of mice with L1210 leukemia cells at a dose of 40 mg/kg. In kind it is functional.
For test [11], the species on record is Mus musculus. The test is described as follows: Compound was tested against weight change in mice with L1210 leukemia cells on 10 th Day at Dose 80 mg / kg. Conditions: at 80 mg/kg.
Test [12] deals with Mus musculus. Kind of test: Median Survival days of mice infected with L1210 leukemia cells at dose 40 mg/kg relative to that of 9 days for control. The class given is functional.
Test [13] has as its target T2, Dihydrofolate reductase (Mus musculus) (UniProt P00375).
T2 sequence (whole entry): T1 sequence (P00375 whole entry)
The conditions noted are these: L1210.
Description: Compound was tested for inhibition of the enzyme DiHydroFolate Reductase (DHFR) from murine L1210 leukemia cells

Test [14] concerns L1210. Kind of test: Compound was tested for its inhibitory concentration to inhibit the growth of wild type L1210 cells. In kind it is functional, cell-based, Mus musculus.
Test [15] concerns Mus musculus. Kind of test: Median Survival days of mice infected with L1210 leukemia cells at dose 40 mg/kg relative to that of 9 days for control in expt 1; Toxic. The class given is functional, organism-based. Also noted: dose 40 mg/kg.
The test system of test [16] is L1210. Kind of test: Compound was tested for its inhibitory concentration to inhibit the growth of wild type L1210 cells; Mean of four separate assays. The class given is functional, cell-based. Conditions: Mus musculus.
The test system of test [17] is L1210. Kind of test: Compound was tested for its inhibitory concentration to inhibit the growth of wild type L1210 cells and a subline (L1210 / R81). In kind it is functional, cell-based. Conditions: Mus musculus.
The species named for test [18] is Mus musculus. Kind of test: Compound was tested against weight change in mice with L1210 leukemia cells on 7 th Day at Dose 10 mg / kg. The conditions noted are these: at 10 mg/kg. In kind it is functional.
In test [19] the test system is Mus musculus. The test is described as follows: Increase in life span of mice with L1210 leukemia cells at a dose of 80 mg/kg in expt 2; Toxic. The class given is functional, organism-based. More on the design: dose 80 mg/kg.
Test [20] concerns Mus musculus. Kind of test: Median Survival days of mice infected with L1210 leukemia cells at dose 20 mg/kg relative to that of 9 days for control in expt 1. In kind it is functional.
Test [21] concerns Mus musculus. The test is described as follows: Increase in life span of mice with L1210 leukemia cells at a dose of 40 mg/kg in expt 2; Toxic. In kind it is functional, organism-based. Also noted: dose 40 mg/kg.
Test [22] deals with Mus musculus. Kind of test: Median Survival days of mice infected with L1210 leukemia cells at dose 80 mg/kg relative to that of 9 days for control in expt 1; Toxic. More on the design: dose 80 mg/kg. The class given is functional, organism-based.
The species named for test [23] is Homo sapiens. The test is described as follows: Compound was tested for its inhibitory concentration against human leukemic lymphoblasts (CEM Cells). In kind it is functional. Conditions: CCRF-CEM.
Test [24] has as its system Mus musculus. Kind of test: Median Survival days of mice infected with L1210 leukemia cells at dose 10 mg/kg relative to that of 9 days for control in expt 1. In kind it is functional.
Test [25] concerns Mus musculus. Kind of test: Increase in life span of mice with L1210 leukemia cells at a dose of 10 mg/kg in expt 1. The class given is functional.
The test system of test [26] is Mus musculus. Kind of test: Increase in life span of mice with L1210 leukemia cells at a dose of 80 mg/kg in expt 2. In kind it is functional.
Test [27] deals with Mus musculus. Kind of test: Increase in life span of mice with L1210 leukemia cells at a dose of 1 mg/kg. The class given is functional.
For test [28], the species on record is Mus musculus. Kind of test: Compound was tested against weight change in mice with L1210 leukemia cells on 7 th Day at Dose 1 mg / kg. In kind it is functional. The conditions noted are these: at 1 mg/kg.
For test [29], the system named is Mus musculus. Kind of test: Median Survival days of mice infected with L1210 leukemia cells at dose 1 mg/kg relative to that of 9 days for control. In kind it is functional.
In test [30] the test system is Mus musculus. The test is described as follows: Increase in life span of mice with L1210 leukemia cells at a dose of 0.5 mg/kg. The class given is functional.
The species named for test [31] is Mus musculus. Kind of test: Compound was tested against weight change in mice with L1210 leukemia cells on 7 th Day at Dose 0.5 mg / kg. In kind it is functional. Conditions: at 0.5 mg/kg.
The species entered for test [32] is Homo sapiens. The test is described as follows: Compound was tested for its inhibitory concentration against human leukemic lymphoblasts (CEM Cells). The conditions noted are these: CCRF-CEM. In kind it is functional.
Test [33] concerns Mus musculus. Kind of test: Median Survival days of mice infected with L1210 leukemia cells at dose 0.5 mg/kg relative to that of 9 days for control. The class given is functional.
Test [34] deals with L1210. The test is described as follows: Compound was tested for its inhibitory concentration to inhibit the growth of wild type L1210 cells. In kind it is functional, cell-based. Conditions: Mus musculus.
The species entered for test [35] is Homo sapiens. The test is described as follows: Compound was tested for its inhibitory concentration against human leukemic lymphoblasts (CEM Cells); Mean of two assays. The conditions noted are these: CCRF-CEM. In kind it is functional.
The test system of test [36] is Mus musculus. The test is described as follows: Median Survival days of mice infected with L1210 leukemia cells at dose 80 mg/kg relative to that of 9 days for control. The class given is functional.
Test [37] relates to Mus musculus. Kind of test: Increase in life span of mice with L1210 leukemia cells at a dose of 80 mg/kg. In kind it is functional.
Test [38] deals with L1210. Kind of test: Compound was tested for its inhibitory concentration to inhibit the growth of wild type L1210 cells and a subline (L1210 / R81); Mean of two assays. The class given is functional, cell-based. The conditions noted are these: Mus musculus.

Consider four molecules from ChEMBL document CHEMBL1123432, “Methotrexate analogues. 28. Synthesis and biological evaluation of new gamma-monoamides of aminopterin and methotrexate” (J Med Chem, 1986).

pIC50: −log10 of the molar value.

As a reminder, the pIC50 is the IC50 on a negative log10 scale, so that one unit is a factor of ten. As usually defined, the ILS is the gain in survival time of treated over control animals, in per cent. As for `Nc1nc(N)c2nc(CNc3ccc(C(=O)NC(CCC(=O)NCc4ccccc4)C(=O)O)cc3)cnc2n1` (configuration not stated), the Weight change is given as 3% in the test filed under Mus musculus [1], 13% in the test filed under Mus musculus [2] and -26% in the test listed under Mus musculus [11]. The Survival was 12 days with Mus musculus [3], “Toxic” in the test on Mus musculus [7] and 14 days in the test with Mus musculus [12]. Also, the pIC50 is 4.77 in the test with L1210 [4]; 5.22 in the test filed under Homo sapiens [5]; 7.19 in the test filed under Homo sapiens [6]; 7.06 against Dihydrofolate reductase; 8.30 with L1210 [14] (Mus musculus, L1210); 8.15 in the test on L1210 [14] (l1210). In addition, the ILS at 20 mg/kg with Mus musculus [8] came to 33%. Also, the increase in life span (ILS) entry with Mus musculus [9] was “Toxic”. The same molecule registered an ILS at 40 mg/kg in the test with Mus musculus [10] of 56%. The same molecule displayed an IC50/[E] in test [13] of 2.2.
Turning to `Nc1nc(N)c2nc(CNc3ccc(C(=O)NC(CCC(=O)Nc4ccc5c(c4)OCO5)C(=O)O)cc3)cnc2n1` (configuration not stated), the Survival result in the test on Mus musculus [15] is “Toxic”; in the test on Mus musculus [20], 14 days; in the test with Mus musculus [22], “Toxic”; in the test on Mus musculus [24], 12 days. Further, the Weight change in the test listed under Mus musculus [1] is given as -20%; in the test listed under Mus musculus [2], 3%; in the test filed under Mus musculus [18], 7%; in the test filed under Mus musculus [11] it was -26%. The pIC50 in the test with L1210 [16] was 9.41; with L1210 [17], 4.55; in the test listed under Homo sapiens [5], 6.00; against Dihydrofolate reductase, 7.35; in the test filed under Homo sapiens [23] it was 6.85; in the test with L1210 [14] (Mus musculus, L1210), 8.49. In addition, the ILS result in the test with Mus musculus [19] and with Mus musculus [21] was “Toxic” in each case. Also, the IC50/[E] in [13] is 1.1. Besides, the ILS at 10 mg/kg in the test on Mus musculus [25] amounted to 56%. The molecule also showed an ILS at 80 mg/kg in the test with Mus musculus [26] of 33%.
On to `Nc1nc(N)c2nc(CNc3ccc(C(=O)N[C@@H](CCC(=O)O)C(=O)O)cc3)cnc2n1` [AMINOPTERIN], for which, in the test with Mus musculus [27], the ILS at 1 mg/kg was 122%. In addition, the Weight change is -5% in the test filed under Mus musculus [28] and -4% in the test listed under Mus musculus [31]. The Survival in the test on Mus musculus [29] worked out at 20 days; with Mus musculus [33], 17 days. The molecule also returned an ILS at 0.5 mg/kg in the test with Mus musculus [30] of 89%. In addition, the pIC50 in the test listed under Homo sapiens [5] is 6.49; in the test filed under Homo sapiens [32] it was 9.00; against Dihydrofolate reductase, 7.70; in the test with L1210 [14] (Mus musculus, L1210), 8.52. This molecule also had an IC50/[E] in test [13] of 0.5.
Consider `CC(C)(C)NC(=O)CCC(NC(=O)c1ccc(NCc2cnc3nc(N)nc(N)c3n2)cc1)C(=O)O` (configuration not stated), for which the Weight change in the test listed under Mus musculus [1] is 7%; in the test listed under Mus musculus [2], 17%; in the test listed under Mus musculus [11], 9%. For the same molecule, the pIC50 was 7.49 in the test on L1210 [34]; 5.24 in the test filed under Homo sapiens [35]; 4.44 in the test filed under Homo sapiens [5]; 4.66 in the test with L1210 [38]; 7.36 at Dihydrofolate reductase; 6.92 in the test with L1210 [14] (Mus musculus, L1210). The Survival in the test on Mus musculus [36] was 11 days; in the test on Mus musculus [3], 9 days; in the test with Mus musculus [12], 10 days. In the test on Mus musculus [37], this molecule displayed an ILS at 80 mg/kg of 22%. In the test on Mus musculus [8], this molecule yielded an ILS at 20 mg/kg of 0%. In the test with Mus musculus [10], this molecule returned an ILS at 40 mg/kg of 11%. This molecule also returned an IC50/[E] in [13] of 1.1.
